assay: Shelf life of aqueous dispersion in 20 oz beverage; format: physicochemical; conditions: aqueous dispersion in 20 oz beverage, 22-25° C.; stable = no settling, phase separation or precipitates
Protocol: As set forth in the examples below, stable aqueous dispersions containing bioactive compounds were prepared by using the solubilization and stabilization process. The resulting dispersions were fine, homogeneous, and stable. There were no settling, phase separation, and precipitates on the side of the bottle (See FIG. 3 and Table 1).

Row | Compound | Shelf Life (22-25° C.)
1 | COc1ccc([C@@H]2CC(=O)c3c(O)cc(O[C@@H]4O[C@H](CO[C@@H]5O[C@@H](C)[C@H](O)[C@@H](O)[C@H]5O)[C@@H](O)[C@H](O)[C@H]4O)cc3O2)cc1O [Hesperedin] | Stable after at least 3 months
2 | COc1cc(/C=C/C(=O)CC(=O)/C=C/c2ccc(O)c(OC)c2)ccc1O [Curcumin] | Stable after at least 3 months
3 | C[C@@H]1CC[C@H]2[C@@H](C)C(=O)O[C@@H]3O[C@@]4(C)CC[C@@H]1[C@]32OO4 [Artemisinin, reference compound] | Stable after at least 3 months

Now from value to molecule:

Row | Shelf Life (22-25° C.) | Compound
4 | Stable after at least 3 months | COc1ccc2oc(-c3ccc(OC)c(OC)c3)c(OC)c(=O)c2c1 [Tetramethoxyflavone, 3,6,3′,4′-Tetramethoxyflavone]
5 | Stable after at least 3 months | O=C1C[C@@H](c2ccc(O)cc2)Oc2cc(O)cc(O)c21 [Naringenin]
6 | Stable after at least 3 months | Oc1ccc(C=Cc2cc(O)cc(O)c2)cc1 [Resveratrol]
7 | Stable after at least 6 months | O=c1c(O)c(-c2ccc(O)c(O)c2)oc2cc(O)cc(O)c12 [Quercetin, 2-(3,4-dihydroxyphenyl)-3,5,7-trihydroxy-4H-chromen-4-one]

same assay, conditions: depending on the dispersion stabilizer(s) used

Row | Compound | Length of time quercetin stays dispersed in a beverage
8 | O=c1c(O)c(-c2ccc(O)c(O)c2)oc2cc(O)cc(O)c12 [Quercetin, 2-(3,4-dihydroxyphenyl)-3,5,7-trihydroxy-4H-chromen-4-one] | about 12 hours to about six months or longer
